Paper PMC8550792, “Evolution of kinase polypharmacology across HSP90 drug discovery” (Cell Chemical Biology, 2021)
Read-outs that look alike come from different tables or passages of the source.

Legend:
Assay in all cases: biochemical
Format in all cases: biochemical
382 unique human kinases [1] = molecular target: T1, 382 unique human kinases (Homo sapiens, UniProt P21802, N549H); details: kinase FGFR2 (N549H), compound 10 uM; for remaining activity at 10 µM: read-out: % Enzyme Activity (relative to DMSO controls)
T1 construct: purchased Reaction Biology (HotSpot contract assay)

382 unique human kinases [2] = molecular target: T2, 382 unique human kinases (Homo sapiens, UniProt P30291); details: kinase WEE1, compound 10 uM; for remaining activity at 10 µM: read-out: % Enzyme Activity (relative to DMSO controls)
T2 construct: purchased Reaction Biology (HotSpot contract assay)

382 unique human kinases [3] = molecular target: T3, 382 unique human kinases (Homo sapiens, UniProt Q00526); details: kinase CDK3/cyclin E, compound 10 uM; for remaining activity at 10 µM: read-out: % Enzyme Activity (relative to DMSO controls)
T3 construct: purchased Reaction Biology (HotSpot contract assay)
T3 sequence (Q00526 whole entry): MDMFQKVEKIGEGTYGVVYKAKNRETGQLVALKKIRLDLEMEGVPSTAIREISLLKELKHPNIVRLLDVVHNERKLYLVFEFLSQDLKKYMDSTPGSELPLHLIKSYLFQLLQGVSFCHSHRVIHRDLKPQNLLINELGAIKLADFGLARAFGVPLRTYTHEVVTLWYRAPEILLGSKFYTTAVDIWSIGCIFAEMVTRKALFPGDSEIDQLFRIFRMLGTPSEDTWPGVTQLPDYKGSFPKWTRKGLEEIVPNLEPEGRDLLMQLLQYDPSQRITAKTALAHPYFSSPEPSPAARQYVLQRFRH

382 unique human kinases [4] = molecular target: T4, 382 unique human kinases (Homo sapiens, UniProt P22612); details: kinase PKAcg, compound 10 uM; for remaining activity at 10 µM: read-out: % Enzyme Activity (relative to DMSO controls)
T4 construct: purchased Reaction Biology (HotSpot contract assay)
T4 sequence (P22612 whole entry): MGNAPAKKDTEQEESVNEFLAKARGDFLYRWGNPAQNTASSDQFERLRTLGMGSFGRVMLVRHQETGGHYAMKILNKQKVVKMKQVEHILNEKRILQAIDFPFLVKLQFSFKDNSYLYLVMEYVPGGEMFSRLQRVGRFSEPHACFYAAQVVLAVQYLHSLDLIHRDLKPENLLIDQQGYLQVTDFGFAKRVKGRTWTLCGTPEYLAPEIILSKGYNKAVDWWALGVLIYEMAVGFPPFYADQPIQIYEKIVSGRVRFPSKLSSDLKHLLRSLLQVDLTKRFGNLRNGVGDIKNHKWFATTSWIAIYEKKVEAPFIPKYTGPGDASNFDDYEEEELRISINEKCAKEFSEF

382 unique human kinases [5] = molecular target: T5, 382 unique human kinases (Homo sapiens, UniProt Q9P0L2); details: MARK1, compound at 10 uM, duplicate values; for remaining activity at 10 µM: read-out: % Enzyme Activity (relative to DMSO controls)
T5 construct: purchased Reaction Biology (HotSpot contract assay)
T5 sequence (Q9P0L2 whole entry): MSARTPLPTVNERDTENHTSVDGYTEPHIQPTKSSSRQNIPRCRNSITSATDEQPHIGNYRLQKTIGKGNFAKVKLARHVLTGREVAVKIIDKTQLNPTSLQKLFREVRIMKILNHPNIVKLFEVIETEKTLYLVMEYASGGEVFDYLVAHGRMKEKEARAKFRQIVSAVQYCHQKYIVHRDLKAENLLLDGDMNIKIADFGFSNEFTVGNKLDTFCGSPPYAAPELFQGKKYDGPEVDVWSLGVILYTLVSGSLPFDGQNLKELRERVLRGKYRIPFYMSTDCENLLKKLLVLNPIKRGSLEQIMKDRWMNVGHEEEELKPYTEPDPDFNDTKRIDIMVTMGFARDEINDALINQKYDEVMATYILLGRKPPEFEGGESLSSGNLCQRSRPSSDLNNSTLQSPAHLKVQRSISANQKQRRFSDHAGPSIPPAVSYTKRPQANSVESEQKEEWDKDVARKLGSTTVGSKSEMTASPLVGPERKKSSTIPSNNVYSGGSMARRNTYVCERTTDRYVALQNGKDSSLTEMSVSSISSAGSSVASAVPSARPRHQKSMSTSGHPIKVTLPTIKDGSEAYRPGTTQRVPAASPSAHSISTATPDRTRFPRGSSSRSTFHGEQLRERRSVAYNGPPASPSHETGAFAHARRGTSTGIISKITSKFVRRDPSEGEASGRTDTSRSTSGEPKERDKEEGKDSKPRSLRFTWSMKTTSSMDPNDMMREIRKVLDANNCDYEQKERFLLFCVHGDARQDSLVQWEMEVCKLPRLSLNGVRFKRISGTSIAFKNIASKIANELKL

382 unique human kinases [6] = molecular target: T6, 382 unique human kinases (Homo sapiens, UniProt P54646); details: for remaining activity at 10 µM: read-out: % Enzyme Activity (relative to DMSO controls)
T6 construct: purchased Reaction Biology (HotSpot contract assay)
T6 sequence (P54646 whole entry): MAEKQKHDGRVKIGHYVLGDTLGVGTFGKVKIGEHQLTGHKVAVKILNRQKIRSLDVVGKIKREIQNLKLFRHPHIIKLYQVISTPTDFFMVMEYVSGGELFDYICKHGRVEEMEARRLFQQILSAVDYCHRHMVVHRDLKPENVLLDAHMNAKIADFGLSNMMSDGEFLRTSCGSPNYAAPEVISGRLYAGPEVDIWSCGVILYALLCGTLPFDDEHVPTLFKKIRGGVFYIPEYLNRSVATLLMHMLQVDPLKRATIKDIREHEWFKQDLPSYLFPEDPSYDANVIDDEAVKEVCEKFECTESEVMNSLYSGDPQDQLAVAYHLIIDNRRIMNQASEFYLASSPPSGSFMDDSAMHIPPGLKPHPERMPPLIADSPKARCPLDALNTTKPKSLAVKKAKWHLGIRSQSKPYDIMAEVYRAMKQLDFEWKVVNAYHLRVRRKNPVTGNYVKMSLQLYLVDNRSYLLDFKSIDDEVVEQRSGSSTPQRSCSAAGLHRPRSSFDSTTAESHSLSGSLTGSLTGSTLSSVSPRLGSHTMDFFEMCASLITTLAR

382 unique human kinases [7] = molecular target: T7, 382 unique human kinases (Homo sapiens, UniProt Q8IVT5); details: KSR1, 10 uM; for remaining activity at 10 µM: read-out: % Enzyme Activity (relative to DMSO controls)
T7 construct: purchased Reaction Biology (HotSpot contract assay)
T7 sequence (Q8IVT5 1-923): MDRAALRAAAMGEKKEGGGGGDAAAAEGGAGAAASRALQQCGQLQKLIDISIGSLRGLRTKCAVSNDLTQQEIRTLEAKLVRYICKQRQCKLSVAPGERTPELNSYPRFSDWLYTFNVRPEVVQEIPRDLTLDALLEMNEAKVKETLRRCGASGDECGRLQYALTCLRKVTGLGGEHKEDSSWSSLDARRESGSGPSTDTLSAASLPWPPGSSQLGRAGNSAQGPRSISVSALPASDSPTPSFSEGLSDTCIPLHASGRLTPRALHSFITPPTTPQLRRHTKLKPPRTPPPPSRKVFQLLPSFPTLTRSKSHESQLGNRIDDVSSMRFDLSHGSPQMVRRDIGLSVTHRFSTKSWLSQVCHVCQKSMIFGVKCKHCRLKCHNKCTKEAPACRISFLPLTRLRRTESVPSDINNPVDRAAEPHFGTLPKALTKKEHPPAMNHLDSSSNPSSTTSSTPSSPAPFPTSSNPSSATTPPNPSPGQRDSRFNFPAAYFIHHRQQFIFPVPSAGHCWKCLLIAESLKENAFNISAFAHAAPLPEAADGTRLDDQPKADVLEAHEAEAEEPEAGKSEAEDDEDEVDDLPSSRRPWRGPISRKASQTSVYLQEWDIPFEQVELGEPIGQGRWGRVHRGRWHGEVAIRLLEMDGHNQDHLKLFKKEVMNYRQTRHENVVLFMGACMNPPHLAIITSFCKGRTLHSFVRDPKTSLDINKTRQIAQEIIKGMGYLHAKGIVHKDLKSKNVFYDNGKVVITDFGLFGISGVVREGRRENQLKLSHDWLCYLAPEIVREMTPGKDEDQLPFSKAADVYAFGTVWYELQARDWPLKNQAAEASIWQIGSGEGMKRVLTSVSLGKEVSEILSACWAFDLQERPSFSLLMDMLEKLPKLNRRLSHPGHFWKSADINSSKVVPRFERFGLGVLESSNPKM

382 unique human kinases [8] = molecular target: T8, 382 unique human kinases (Homo sapiens, UniProt P00519, Q252H); details: ABL1 (Q252H), [ATP] 20 µM, compound 10 uM; for remaining activity at 10 µM: read-out: % Enzyme Activity (relative to DMSO controls)
T8 construct: purchased Reaction Biology (HotSpot contract assay)

382 unique human kinases [9] = molecular target: T9, 382 unique human kinases (Homo sapiens, UniProt Q6VAB6); details: KSR2, 10 uM; for remaining activity at 10 µM: read-out: % Enzyme Activity (relative to DMSO controls)
T9 sequence (Q6VAB6 1-950): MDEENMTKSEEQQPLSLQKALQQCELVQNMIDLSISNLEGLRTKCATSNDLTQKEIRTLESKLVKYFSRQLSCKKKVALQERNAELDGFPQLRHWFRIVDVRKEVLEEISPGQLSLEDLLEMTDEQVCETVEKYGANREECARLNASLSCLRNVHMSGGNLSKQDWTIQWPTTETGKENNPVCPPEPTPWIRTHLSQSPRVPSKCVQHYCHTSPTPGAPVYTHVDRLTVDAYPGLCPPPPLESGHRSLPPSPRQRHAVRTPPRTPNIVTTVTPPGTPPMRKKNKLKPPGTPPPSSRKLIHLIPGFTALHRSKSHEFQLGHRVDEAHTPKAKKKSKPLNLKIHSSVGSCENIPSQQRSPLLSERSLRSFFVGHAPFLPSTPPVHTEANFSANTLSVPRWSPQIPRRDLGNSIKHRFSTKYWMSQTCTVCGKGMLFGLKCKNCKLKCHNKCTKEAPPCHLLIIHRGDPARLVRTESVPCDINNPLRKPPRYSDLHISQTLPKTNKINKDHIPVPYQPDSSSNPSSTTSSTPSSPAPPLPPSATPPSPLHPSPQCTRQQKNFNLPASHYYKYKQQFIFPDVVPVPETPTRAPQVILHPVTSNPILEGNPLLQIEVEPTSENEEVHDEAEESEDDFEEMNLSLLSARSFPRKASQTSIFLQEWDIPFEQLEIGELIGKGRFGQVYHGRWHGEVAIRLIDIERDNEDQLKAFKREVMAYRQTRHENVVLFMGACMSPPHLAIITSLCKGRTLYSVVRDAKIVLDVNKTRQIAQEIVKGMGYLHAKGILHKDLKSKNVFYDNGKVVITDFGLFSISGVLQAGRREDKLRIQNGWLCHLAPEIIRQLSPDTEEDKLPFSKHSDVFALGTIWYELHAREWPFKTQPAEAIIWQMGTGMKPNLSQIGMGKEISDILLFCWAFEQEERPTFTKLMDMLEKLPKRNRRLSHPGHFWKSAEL

382 unique human kinases [10] = molecular target: T10, 382 unique human kinases (Homo sapiens, UniProt Q9H0K1); details: SIK2, [ATP] 30 µM
T10 construct: purchased Reaction Biology (HotSpot contract assay)
T10 sequence (Q9H0K1 whole entry): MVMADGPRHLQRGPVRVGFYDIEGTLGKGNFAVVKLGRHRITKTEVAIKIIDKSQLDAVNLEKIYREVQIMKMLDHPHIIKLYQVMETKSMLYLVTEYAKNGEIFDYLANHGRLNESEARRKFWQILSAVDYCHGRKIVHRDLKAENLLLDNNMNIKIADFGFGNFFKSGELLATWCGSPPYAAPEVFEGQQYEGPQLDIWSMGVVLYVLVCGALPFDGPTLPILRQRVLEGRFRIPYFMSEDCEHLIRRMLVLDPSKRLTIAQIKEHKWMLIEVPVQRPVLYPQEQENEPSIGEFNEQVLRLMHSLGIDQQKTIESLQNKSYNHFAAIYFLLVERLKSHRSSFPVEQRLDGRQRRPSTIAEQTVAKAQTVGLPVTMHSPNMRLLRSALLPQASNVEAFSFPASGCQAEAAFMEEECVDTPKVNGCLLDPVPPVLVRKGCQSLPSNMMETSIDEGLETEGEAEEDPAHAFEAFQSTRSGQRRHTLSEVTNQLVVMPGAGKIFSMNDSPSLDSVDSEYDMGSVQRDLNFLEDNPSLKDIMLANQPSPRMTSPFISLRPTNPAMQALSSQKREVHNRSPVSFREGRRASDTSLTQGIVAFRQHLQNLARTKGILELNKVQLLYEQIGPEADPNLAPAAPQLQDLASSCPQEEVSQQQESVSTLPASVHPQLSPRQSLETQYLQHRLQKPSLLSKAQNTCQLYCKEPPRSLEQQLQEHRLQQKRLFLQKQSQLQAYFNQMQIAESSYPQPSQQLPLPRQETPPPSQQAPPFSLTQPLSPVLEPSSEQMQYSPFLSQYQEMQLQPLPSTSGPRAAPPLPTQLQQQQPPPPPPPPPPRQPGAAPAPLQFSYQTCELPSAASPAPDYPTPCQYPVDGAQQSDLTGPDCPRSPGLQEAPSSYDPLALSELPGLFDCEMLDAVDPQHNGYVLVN

382 unique human kinases [11] = molecular target: T11, 382 unique human kinases (Homo sapiens, UniProt P07333); details: FMS, [ATP] 100 µM, compound 10 uM; for remaining activity at 10 µM: read-out: % Enzyme Activity (relative to DMSO controls)
T11 construct: purchased Reaction Biology (HotSpot contract assay)
T11 sequence (P07333 20-972): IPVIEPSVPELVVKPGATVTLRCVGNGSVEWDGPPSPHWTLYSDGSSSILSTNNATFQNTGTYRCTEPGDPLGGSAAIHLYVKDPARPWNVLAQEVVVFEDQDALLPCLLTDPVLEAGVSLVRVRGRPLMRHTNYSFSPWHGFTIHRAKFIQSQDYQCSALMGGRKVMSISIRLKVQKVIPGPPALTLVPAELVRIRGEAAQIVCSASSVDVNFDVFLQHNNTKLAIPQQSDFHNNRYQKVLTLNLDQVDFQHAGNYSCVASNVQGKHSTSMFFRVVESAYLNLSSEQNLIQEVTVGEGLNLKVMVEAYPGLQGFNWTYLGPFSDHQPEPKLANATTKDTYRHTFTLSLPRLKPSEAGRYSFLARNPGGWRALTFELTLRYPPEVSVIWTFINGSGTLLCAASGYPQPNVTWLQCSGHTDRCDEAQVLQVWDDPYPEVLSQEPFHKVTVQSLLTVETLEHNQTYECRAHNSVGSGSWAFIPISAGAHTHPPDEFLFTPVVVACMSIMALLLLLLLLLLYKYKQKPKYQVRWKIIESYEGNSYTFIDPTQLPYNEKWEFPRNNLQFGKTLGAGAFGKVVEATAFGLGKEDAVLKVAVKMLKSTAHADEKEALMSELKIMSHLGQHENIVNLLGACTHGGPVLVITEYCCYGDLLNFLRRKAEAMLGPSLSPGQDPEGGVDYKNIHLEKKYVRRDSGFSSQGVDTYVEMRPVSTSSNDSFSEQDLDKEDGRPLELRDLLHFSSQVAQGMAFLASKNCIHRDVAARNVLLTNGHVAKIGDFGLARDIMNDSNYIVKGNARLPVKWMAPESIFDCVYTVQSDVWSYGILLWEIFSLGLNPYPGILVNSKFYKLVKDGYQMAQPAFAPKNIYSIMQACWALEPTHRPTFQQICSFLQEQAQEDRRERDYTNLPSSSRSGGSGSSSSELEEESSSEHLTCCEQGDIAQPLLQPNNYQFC

382 unique human kinases [12] = molecular target: T12, 382 unique human kinases (Homo sapiens, UniProt P10721, V559A); details: c-Kit (V559A), [ATP] 100 µM, compound 10 uM; for remaining activity at 10 µM: read-out: % Enzyme Activity (relative to DMSO controls)
T12 construct: purchased Reaction Biology (HotSpot contract assay)
T12 sequence (P10721 26-976 V559A): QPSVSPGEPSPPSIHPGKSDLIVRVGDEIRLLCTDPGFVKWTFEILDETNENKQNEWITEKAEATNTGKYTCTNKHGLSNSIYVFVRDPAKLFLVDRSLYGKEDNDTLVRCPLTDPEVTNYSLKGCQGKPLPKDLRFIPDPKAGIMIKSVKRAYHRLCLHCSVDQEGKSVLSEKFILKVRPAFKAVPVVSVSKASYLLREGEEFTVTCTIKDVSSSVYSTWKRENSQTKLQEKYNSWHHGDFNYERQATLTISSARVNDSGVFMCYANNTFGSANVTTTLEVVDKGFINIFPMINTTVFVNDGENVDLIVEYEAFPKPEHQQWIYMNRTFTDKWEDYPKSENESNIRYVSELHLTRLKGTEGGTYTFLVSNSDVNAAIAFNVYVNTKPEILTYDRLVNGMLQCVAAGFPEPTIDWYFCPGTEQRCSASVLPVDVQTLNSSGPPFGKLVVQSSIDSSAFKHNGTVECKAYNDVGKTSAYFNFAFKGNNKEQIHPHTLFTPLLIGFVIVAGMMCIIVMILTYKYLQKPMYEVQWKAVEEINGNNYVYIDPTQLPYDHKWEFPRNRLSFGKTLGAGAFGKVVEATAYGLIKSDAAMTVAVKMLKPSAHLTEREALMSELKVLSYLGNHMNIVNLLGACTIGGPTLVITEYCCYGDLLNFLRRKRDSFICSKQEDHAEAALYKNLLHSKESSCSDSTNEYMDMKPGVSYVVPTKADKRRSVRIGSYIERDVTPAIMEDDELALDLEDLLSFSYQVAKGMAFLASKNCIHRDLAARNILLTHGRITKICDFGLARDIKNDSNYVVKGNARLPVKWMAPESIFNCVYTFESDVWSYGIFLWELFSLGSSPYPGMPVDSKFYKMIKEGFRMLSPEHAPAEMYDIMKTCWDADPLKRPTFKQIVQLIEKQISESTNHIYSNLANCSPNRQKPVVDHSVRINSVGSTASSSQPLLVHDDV

[13] = kinase AMPK(A2/B1/G1), compound 10 uM
[14] = kinase AMPK(A2/B2/G1), compound 10 uM
[15] = kinase AMPK(A2/B2/G2), compound 10 uM
[16] = compound 10 uM, read-out: % Enzyme Activity (relative to DMSO controls)

| Structure (SMILES) | remaining activity at 10 µM (382 unique human kinases [1]) [%] | remaining activity at 10 µM (382 unique human kinases [2]) [%] | remaining activity at 10 µM (382 unique human kinases [3]) [%] | remaining activity at 10 µM (382 unique human kinases [4]) [%] | remaining activity at 10 µM (382 unique human kinases [5]) [%] | remaining activity at 10 µM (382 unique human kinases [6]; AMPK(A2/B2/G3), 10 uM) [%] | remaining activity at 10 µM (382 unique human kinases [6]; [13]) [%] | remaining activity at 10 µM (382 unique human kinases [6]; [14]) [%] | remaining activity at 10 µM (382 unique human kinases [6]; [15]) [%] | remaining activity at 10 µM (382 unique human kinases [7]) [%] | remaining activity at 10 µM (382 unique human kinases [8]) [%] | remaining activity at 10 µM (382 unique human kinases [9]) [%] | remaining activity at 10 µM (382 unique human kinases [10]; [16]) [%] | remaining activity at 10 µM (382 unique human kinases [11]) [%] | remaining activity at 10 µM (382 unique human kinases [12]) [%] | other results |
| --- | --- | --- | --- | --- | --- | --- | --- | --- | --- | --- | --- | --- | --- | --- | --- | --- |
| CC(C)c1cc(-c2n[nH]c(=O)n2-c2ccc3c(ccn3C)c2)c(O)cc1O [Ganetespib (STA9090)] | 79.3 | 87.2 | 82.2 | 101 | 112 | 65.8 | 80.4 | 82.1 | 84.6 |  |  |  |  |  |  |  |
| CC(C)c1cc(-c2n[nH]c(=O)n2-c2ccc3c(ccn3C)c2)c(O)cc1O [Ganetespib] |  |  |  |  |  |  |  |  |  | 99.8 | 3.59 | 94.1 | 4.64 | 23.5 | 43.9 | remaining activity at 1 µM (382 unique human kinases [10]; compound 1 uM, read-out: % Enzyme Activity (relative to DMSO controls)): 70.2% |
| CCNC(=O)c1noc(-c2cc(C(C)C)c(O)cc2O)c1-c1ccc(CN2CCOCC2)cc1 [Luminespib (AUY-922)] | 107 | 116 | 103 | 104 | 110 | 104 | 103 | 94.2 | 97.4 |  |  |  |  |  |  | % Enzyme Activity (relative to DMSO controls) (382 unique human kinases [1]): 106.42%; % Enzyme Activity (relative to DMSO controls) (382 unique human kinases [2]): 114.11%; % Enzyme Activity (relative to DMSO controls) (382 unique human kinases [3]): 102.34%; % Enzyme Activity (relative to DMSO controls) (382 unique human kinases [4]): 102.38%; % Enzyme Activity (relative to DMSO controls) (382 unique human kinases [5]): 104.63%; % Enzyme Activity (relative to DMSO controls) (382 unique human kinases [6]; AMPK(A2/B2/G3), 10 uM): 103.09%; % Enzyme Activity (relative to DMSO controls) (382 unique human kinases [6]; [13]): 102.86%; % Enzyme Activity (relative to DMSO controls) (382 unique human kinases [6]; [14]): 94.15%; % Enzyme Activity (relative to DMSO controls) (382 unique human kinases [6]; [15]): 96.15% |
| CCNC(=O)c1noc(-c2cc(C(C)C)c(O)cc2O)c1-c1ccc(CN2CCOCC2)cc1 [Luminespib] |  |  |  |  |  |  |  |  |  | 98.8 | 5.39 | 96.3 | 81.2 | 26.4 | 61.6 | % Enzyme Activity (relative to DMSO controls) (382 unique human kinases [7]): 97.63%; % Enzyme Activity (relative to DMSO controls) (382 unique human kinases [8]): 5.25%; % Enzyme Activity (relative to DMSO controls) (382 unique human kinases [9]): 96.02%; % Enzyme Activity (relative to DMSO controls) (382 unique human kinases [10]; compound 10 uM): 80.93%; % Enzyme Activity (relative to DMSO controls) (382 unique human kinases [11]): 26.15%; % Enzyme Activity (relative to DMSO controls) (382 unique human kinases [12]): 61.54% |
